{"source": "patent US5712270A", "about": "“2-arylamidothiazole derivatives with CNS activity” (American Home Products Corporation, priority 1996, dated 1998)", "key": {"[1]": {"tested_on": "scopolamine-induced hyperactivity", "test": "Reversal of scopolamine-induced hyperactivity in mice (swim tank)", "assay_type": "in vivo, Male CFW mice", "conditions": "Mus musculus, ip, 5 min, 0.3 mg/kg scopolamine.HBr, i.p., mean swimming distance, read-out: minimum effective dose (MED), reversal of scopolamine hyperactivity", "description": "The compound of Example 1 was also tested in accordance with the procedure of Symons et al, Soc. Neuroscience Abstracts 12:2, 897 (1986) in which Male CFW mice, 25 to 35 grams in weight are given the test compound in suitable vehicle plus 0.3 mg/kg scopoolamine.HBr in suitable vehicle, i.p.(3 groups of 12 animals each) or vehicle alone (1 group of 12 animals ) or vehicle plus scopolamine. HBr (1 group of 12 animals). The rates are placed in a swim tank, individually, containing 10 cm H2 O for a period of 5 minutes and the distance each animal swims is recorded."}, "[2]": {"tested_on": "serotonin 5-HT1A receptor", "conditions": "standard for anxiolytic activity; cited from earlier work"}, "[3]": {"tested_on": "memory in patients with mild to moderate Alzheimer's Disease", "conditions": "cited from earlier work; for memory improvement in patients: mild to moderate Alzheimer's Disease"}}, "data": [{"smiles": "CN(C)CCOC(=O)c1csc(NC(=O)c2cc(C(C)(C)C)c(O)c(C(C)(C)C)c2)n1", "note": "[Example 1, 2-[[3,5,-Bis(1,1-dimethylethl)-4-hydroxybenzoyl]amino]-4-thiazolecarboxylicacid 2-(dimethylamino)ethyl ester]", "values": [{"measurement": "minimal effective dose", "setting": "[1]", "value": 3, "unit": "mg/kg"}]}, {"smiles": "O=C1CC2(CCCC2)CC(=O)N1CCCCN1CCN(c2ncccn2)CC1", "note": "[buspirone]", "values": [{"measurement": "affinity for the 5-HT1A serotonin receptor subtype (words, buspirone)", "setting": "[2]", "value": "potent affinity"}]}, {"smiles": "COC(=O)C1=CCCN(C)C1", "note": "[arecoline]", "values": [{"measurement": "memory improvement in patients", "setting": "[3]", "value": "memory improvement in patients with mild to moderate Alzheimer's Disease"}]}, {"smiles": "Nc1c2c(nc3ccccc13)CCCC2", "note": "[tacrine]", "values": [{"measurement": "side effects", "setting": "[3]; especially at the higher doses", "value": "adverse side effects especially at the higher doses"}, {"measurement": "memory improvement in patients", "setting": "[3]", "value": "improvement in memory can be shown in patients with mild to moderate Alzheimer's Disease"}]}]}
